# Measurements published in patent US20160022168A1, “BRAIN STATE DEPENDENT THERAPY FOR IMPROVED NEURAL TRAINING AND REHABILITATION” (UNIVERSITY OF LETHBRIDGE, priority 2014, published 2016).
# What was measured:
# [1] = tested on: primary somatosensory cortex (S1); test: Population recordings in primary somatosensory cortex (S1) before, during and after tactile stimulation in urethane-anesthetised rats; type: in vivo, Long Evans rats; settings: for firing rate reactivation (explained variance) during the stimulation period: 1 sec intervals of spontaneous activity, FIG. 4C; for Euclidian distance between firing rate correlation matrices, evoked vs following spontaneous compared with evoked vs preceding spontaneous: FIG. 4B, paired t-test; for mean corr. coef. change of latency correlation (spontaneous vs evoked) after tactile stimulation: latency from cross-correlogram with MUA, FIG. 2E; for mean corr. coef. change of latency correlation (spontaneous vs evoked) after tactile stimulation / mean corr. coef. change of latency correlation from pairwise correlograms: mean ± SEM; for mean corr. coef. change of latency correlation from pairwise correlograms: pair-wise cross-correlograms, FIG. 2E white bars; for latency correlation after vs before stimulation (averaged values): t-test
# Description: (§1) Rats were then placed in a stereotaxic frame, and a window in the skull was prepared over primary somatosensory cortex (S1) hindlimb area (AP −1 mm; ML 2 mm; DV 1.5 mm) For auditory experiments, 8 Long Evans rats (250-350 g) were anesthetised with urethane (1.5 g/kg IP) and placed in a nasal restraint that left the ears free. A window in the skull (2×3 mm) was prepared over the primary auditory cortex. For all recordings, Applicant used silicon probes consisting of eight shanks (200 μm shank separation); each shank had 4 recording sites in a tetrode configuration (20 μm separation between sites, 160 μm^2 site area; 1-3 MOhm impedance; NeuroNexus Technologies).
# The time course of the experimental protocol is illustrated in FIG. 1A and FIG. 1B. […] Each recording period consisted of 10 min of spontaneous activity, followed by 20 minutes of tactile stimulation, and then another 10 min of spontaneous activity. The tactile stimulation consisted of 600 repetitions of 1 second stimulation at 20 Hz followed by 1 second without stimulation. The tactile stimulator consisted of a plastic rod attached at one end to a membrane of a speaker controlled by a computer. The other end of the rod was placed in contact with left hind limb.
# In order to quantify temporal relations among neurons, Applicant calculated the mean spike latency as described previously. Briefly, for each neuron, latency is defined as the center of mass of a cross-correlogram of that neuron with the summed activity of all other simultaneously recorded cells (MUA), within a time window of 100 ms (FIG. 2A). Before calculating the center of mass, cross-correlograms were smoothed with a Gaussian kernel with SD=5 ms and normalized between 0 and 1 to discard effects of baseline activity. Thus this measure estimates the time when the corresponding neuron is most likely to fire with respect to the population activity. In addition to analysis of cross-correlograms between single neurons and multiunit activity as described above, Applicant also calculated latency from pair-wise cross-correlograms to look at temporal relations between neurons in more detail (FIG. 2E white bars).
# Extracellular signals were high-pass filtered (0.1 Hz) and amplified (1,000 times) using a 64-channel amplifier (Neuralynx). Signals were then digitized at 32 kHz. Units were identified and isolated by a semiautomatic cluster cutting algorithm (available at: klustakwik.sourceforge.net), followed by manual clustering (MClust).
# To ensure that our results are not affected by differences in firing rates among animals, Applicant down sampled the multi-unit activity of all animals to match the number of spikes in the sample with the lowest firing rate. […]
# For this analysis Applicant only included neurons with a firing rate above 0.6 Hz.
# auditory cortex = test: Population recordings in auditory cortex (A1) before, during and after tone stimulation in urethane-anesthetised rats; type: in vivo, Long Evans rats; settings: for brain state in auditory cortex: urethane-anesthetised rats, carbachol infused into posterior hypothalamic nucleus, amphetamine 1 mg/kg IP, MK801 0.1 mg/kg i.p.
# Description: as §1
# To ensure that our results are not affected by differences in firing rates among animals, Applicant down sampled the multi-unit activity of all animals to match the number of spikes in the sample with the lowest firing rate.
Compound,firing rate reactivation (explained variance) during the stimulation period ([1]; S1),"Euclidian distance between firing rate correlation matrices, evoked vs following spontaneous compared with evoked vs preceding spontaneous ([1]; S1)","mean slope of latency correlation after stimulation ceased ([1]; S1, after stimulation FIG. 2G, ± SD)","mean slope of latency correlation, pre-stimulus spontaneous periods ([1]; S1, first three points FIG. 2G, ± SD)",mean corr. coef. change of latency correlation (spontaneous vs evoked) after tactile stimulation ([1]; S1),mean corr. coef. change of latency correlation from pairwise correlograms ([1]; S1),latency correlation after vs before stimulation (averaged values) ([1]; S1),"mean slope of latency correlation during stimulation ([1]; S1, three points during stimulation FIG. 2G, ± SD)","duration of desynchronized state after injection ([1]; urethane-anesthetised rats, amphetamine 1 mg/kg)","brain state (cortical activity, LFP and unit activity) in S1 ([1]; urethane 1.5 g/kg IP, amphetamine 1 mg/kg injected in addition)",brain state in auditory cortex (auditory cortex),replay activity (reverberation of stimulus-evoked patterns) (auditory cortex; after NMDA receptor antagonist application)
d-Methamphetamine HCl,significant firing rate reactivation,smaller,−0.07±0.08,−0.01±0.1,0.31±0.062,0.098±0.023,significantly higher after stimulation,0.11±0.12,at least 30 minutes,,,
CCOC(N)=O [urethane],significant firing rate reactivation,non-significant increase in similarity,,,−0.03±0.06,0.049±0.025,not significantly different,,,synchronized state,synchronized brain state,
C[C@]12N[C@H](Cc3ccccc31)c1ccccc12 [MK801],,,,,,,,,,,,suppressed
C[N+](C)(C)CCOC(N)=O [carbachol],,,,,,,,,,,desynchronization of the brain state,
